In PubChem BioAssay AID1963828 (Molecular Pharmacology Branch, DTP, NCI, 2024):
Values joined by “and” are separate entries in the source; they are usually repeats but may differ in a detail not shown here. Identical values can stand only once.

Test system: 991263-137-R1-J2-PDC complex spheroid viability
Assay: Anticancer human tumor 991263-137-R1-J2-PDC patient-derived colon adenocarcinoma cell line growth inhibition [POLQ]
Settings: for viability, T/C: stronger effect = lower value
Method: Multicellular complex tumor spheroid response to Polymerase (POL) inhibitors (novobiocin, ART-558, RP6685) in combination with a variety of drugs and investigational agents in selected tumor cell lines
The POL inhibitors (novobiocin, ART-558, and RP6685) were evaluated both individually and in combination with standard of care and investigational anticancer small molecules within a complex spheroid model of solid tumors. . Complex spheroids include a stromal component modeled by human endothelial cells (HUVEC) and fibroblasts modeled by human mesenchymal stem cells (MSCs). The concentration ranges selected for each drug and investigational agent were based upon clinically achievable concentrations if the clinical Cmax of the agent was known.
Compounds. The drugs and investigational agents: novobiocin (NSC847541), ART-558 (NSC835418), RP-6685 (NSC848927), peposertib (NSC802822), ceralasertib (NSC780249), elimusertib (NSC800525), camonsertib (NSC841442), AZD-1390 (NSC803789), olaparib (NSC753686), talazoparib (NSC767125), rucaparib (NSC756644), sotorasib (NSC818433), MRTX-1133 (NSC836407), SN-38 (NSC673596), topotecan (NSC609699), epotoside (NSC141540), doxorubicin (NSC123127), gemcitabine (NSC613327), 5-fluorouracil (NSC19893), paclitaxel (NSC125973), vemurafenib (NSC761431), MSA-2 (NSC828583), SN-011 (NSC837082), adavosertib (NSC754352), prexasertib (NSC758257), carboplatin (NSC241240) and oxaliplatin (NSC266046), were obtained from the National Cancer Institute (NCI) Developmental Therapeutics Program Chemical Repository (21). The FDA-approved anticancer drug set is available from the Developmental Therapeutics Program at https://dtp.cancer.gov/organization/dscb/obtaining/. […] The stock solutions were prepared in dimethyl sulfoxide (DMSO, Sigma-Aldrich, St. Louis, MO, cat. D2650), except for the platinum compounds which were prepared in saline (Quality Biological, Gaithersburg, MD, cat. 114-055-101), at 800-fold the tested concentration and stored at -70 degrees C prior to their use. All drugs and investigational agents were tested over a range starting from a high concentration at or near the clinical Cmax and decreasing in half-log increments. If the clinical Cmax for an agent had not been determined, the highest concentration tested was 10 microM, except for SN-38, which was tested at a high concentration of 1 microM.
Cell Culture. All cells were maintained in an incubator at 37 degrees C and 5% CO2 with 95% humidity. The PDC lines were cultured according to standard operating procedures established by the NCI PDMR (https://pdmr.cancer.gov). Table 3 of the manuscript, lists the cell lines along with the number of the three cell types plated to form the mct-spheroids and media for tumor cell growth. After thawing, all PDC lines, except 997537-175-T-J1-PDC and 415267-285-R-J2-PDC, were cultured in Matrigel-coated flasks prepared with a working solution of 1X Ham's F-12 nutrient mix, without supplementation (Thermo Fisher Scientific, cat. 11765054), 100 U/mL penicillin-streptomycin (Thermo Fisher Scientific, cat. 15140122), and 2.5% Matrigel (Corning Inc., Corning, NY, cat. 354248) for the first three passages. The two PDC lines 997537-175-T-J1-PDC and 415267-285-R-J2-PDC were cultured on uncoated flasks. The 857933-349-R-J2-PDC line was cultured in 6C/Colon 1B media containing advanced DMEM/F-12 (Thermo Fisher Scientific, cat. 12634028), 10 mM HEPES (Thermo Fisher Scientific, cat. 15630080), 1X GlutaMAX supplement (Thermo Fisher Scientific, cat. 35050061), 0.1 mg/mL primocin (InvivoGen, San Diego, CA, cat. ant-pm-2), 10% defined fetal bovine serum, heat inactivated (HyClone Laboratories Inc., Logan, UT, cat. SH30070.03HI), 50% L-WRN conditioned media (ATCC, cat. CRL-3276), 1.25 mM N-Acetyl-L-cysteine (Sigma-Aldrich, cat. A9165), 10 mM nicotinamide (Sigma-Aldrich, cat. N0636), 1X B-27 supplement (Thermo Fisher Scientific, cat. 17504044), 1X N-2 supplement (Thermo Fisher Scientific, cat. […]

[1] = compound alone, run of 01/08/2024
[2] = compound alone, run of 01/19/2024
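Note: spheroids exposed to compounds for 7 days before readout.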
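Throughout, for viability, T/C: 100% = DMSO vehicle control viability.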

SMILES | viability, T/C (compound 0.0316 µM) | viability, T/C (compound 0.1 µM) | viability, T/C (compound 0.316 µM) | viability, T/C (compound 1 µM) | viability, T/C (compound 10 µM) | IC50 (curve of compound) | IC50 [1] | viability, T/C (compound 3.16 µM) | viability, T/C (compound 0.00316 µM) | viability, T/C (compound 0.01 µM) | IC50 [2] | viability, T/C (compound 0.000316 µM) | viability, T/C (compound 0.001 µM)
CNCc1ccc(-c2[nH]c3cc(F)cc4c3c2CCNC4=O)cc1 | 98% and 102% and 119% | 109% and 91.5% and 97.6% | 97% and 102% and 112% | 110% and 101% and 96% | 111% and 110% and 104% | > 10 µM | – | – | – | – | – | – | –
COC1C(OC(N)=O)C(O)C(Oc2ccc3c(O)c(NC(=O)c4ccc(O)c(CC=C(C)C)c4)c(=O)oc3c2C)OC1(C)C (stereo not given) | 102% [middle of 12 runs] | – | 103% [middle of 12 runs] | – | – | – | > 10 µM | – | – | – | – | – | –
COc1cc(C2c3cc4c(cc3C(OC3OC5COC(C)OC5C(O)C3O)C3COC(=O)C23)OCO4)cc(OC)c1O (stereo not given) | 105% and 96.4% and 99.6% | 86.2% and 94.5% and 92.4% | – | 97.8% and 95.9% and 92.5% | 69.9% and 77% and 77.1% | > 10 µM | – | 77.9% and 88.6% and 71.9% | – | – | – | – | –
COc1cc2cc(C(=O)CCC(=O)O)sc2cc1OC | 104% and 107% and 91.3% | 85% and 96.5% and 104% | 117% and 104% and 114% | – | 74.1% and 83.3% and 78.4% | > 10 µM | – | – | – | – | – | – | –
COc1ccc([C@@H](O)c2cc(-c3ncnc4cc(N5CCOCC5)ccc34)c(F)cc2Cl)nn1 | 105% and 102% and 82.6% | 84.6% and 103% and 79.1% | 98.5% and 95.2% and 91.9% | 87% and 97.5% and 103% | 28.5% and 31.4% and 28.6% | 5.36 µM and 5.45 µM and 4.48 µM | – | 68% and 66.7% and 59.3% | – | – | – | – | –
COc1cccc(OCCCN)c1-c1cc(Nc2cnc(C#N)cn2)n[nH]1 | 101% and 94.9% and 94.6% | – | 43.2% and 53.1% and 61.2% | 40.1% and 42.8% and 46.3% | – | 0.0909 µM and 0.464 µM and 0.75 µM | – | – | 89.6% and 99.7% and 88.6% | 98.1% and 107% and 85.7% | – | – | –
COc1cccc2c1C(=O)c1c(O)c3c(c(O)c1C2=O)CC(O)(C(=O)CO)CC3OC1CC(N)C(O)C(C)O1 (stereo not given) | 103% and 95.2% and 99.9% | 106% and 91% and 88.5% | 77% and 85.2% (2×) | 51% and 54.2% and 48.5% | 41.7% and 36.5% and 38.3% | 0.903 µM and 1.42 µM and 0.972 µM | – | 29.6% and 40.6% and 40.8% | – | – | – | – | –
Cc1cccc(N(C)C(=O)C2C(O)CCN2c2nc(C)cc(C(F)(F)F)c2C#N)c1 (stereo not given) | 101% [middle of 13 runs] | 99.2% [middle of 13 runs] | – | – | 100% [middle of 13 runs] | – | > 10 µM | 101% [middle of 13 runs] | – | – | > 10 µM | – | –
Cn1ncnc1[C@H]1c2n[nH]c(=O)c3cc(F)cc(c23)N[C@@H]1c1ccc(F)cc1 | 89.6% and 101% and 84.5% | 106% and 112% and 105% | – | – | – | > 0.1 µM | – | – | 102% and 104% and 109% | 109% and 105% and 119% | – | 102% and 97.3% and 87.3% | 93.6% and 88.1% and 88.5%
Nc1ccc(C#CCN(C(=O)Cc2ncc(C(F)(F)F)cc2C(F)(F)F)c2ccc(F)cc2)nn1 | 100% [middle of 13 runs] | 101% [middle of 13 runs] | 99.3% [middle of 13 runs] | 102% [middle of 13 runs] | 101% [middle of 13 runs] | – | – | 103% [middle of 13 runs] | – | – | > 10 µM | – | –
Nc1ccn(C2OC(CO)C(O)C2(F)F)c(=O)n1 (stereo not given) | 90.8% and 85.4% and 75.5% | 53.7% and 74.1% and 58.9% | 69% and 61.1% and 58.6% | 58.6% and 60.4% and 47.9% | 40.8% and 47% and 37.3% | – | – | 37.6% and 56.2% and 37.2% | – | – | – | – | –
O=C(Nc1ccc(O)c(NS(=O)(=O)c2ccc(F)cc2)c1)c1ccc(-c2ccccc2)cc1 | 101% (2×) and 109% | 98.5% and 91.8% and 94.6% | 113% and 109% and 100% | 97.6% and 98.6% and 105% | 101% and 97.1% and 79.9% | > 10 µM | – | 96.9% and 88.3% and 105% | – | – | – | – | –
O=C(c1cc(Cc2n[nH]c(=O)c3ccccc23)ccc1F)N1CCN(C(=O)C2CC2)CC1 | 106% and 90.8% and 97% | 97.2% and 97.7% and 99.1% | 84.8% and 95.7% and 101% | 108% and 85.4% and 103% | – | > 10 µM | – | 105% and 92.7% and 98.1% | – | – | – | – | –
O=c1[nH]cc(F)c(=O)[nH]1 | 106% and 114% and 96.5% | 90.3% and 99.3% and 92.5% | 76.8% and 93.5% and 94.8% | 94% and 95.8% and 91% | 91.7% and 85.1% and 80.9% | > 10 µM | – | – | – | – | – | – | –
